Among the test systems are A498 renal; HCT-116 colon; HT29 colon; K-562 leukemia; MALME-3M melanoma; MCF7 breast; NCI-H23 lung; OVCAR-3 ovarian; HOP-92 NSCLC; OVCAR-8 ovarian.
What all share (test): NCI tumour cell line growth inhibition, 48 h

The results in this text go back to PubChem BioAssay (NCI).

“And” between values parts separate entries of the source, which are not always exact repeats. Equal values may be shown once.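 96-well plates; 48 h exposure; 5 concentrations. Endpoints by linear interpolation between flanking doses. Not reached: highest tested concentration assigned. At the GI50, growth is halved. TGI: concentration producing complete growth inhibition.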

As for `CSC1(CC(=O)N2CCCCC2)C(=O)Nc2ccccc21` (stereo not given), the TGI in the test with A498 renal, in the test with HCT-116 colon, in the test on HT29 colon, with K-562 leukemia, with MALME-3M melanoma and in the test on MCF7 breast was greater than 100 µM in each case. Further, the TGI in the test on NCI-H23 lung and in the test on OVCAR-3 ovarian was greater than 100 µM in each case.

Consider `COc1cnc2c(c1)C(=O)c1c-2n(CCCNC(C)C)c(=O)c2cc([N+](=O)[O-])ccc12`, for which the GI50 in the test on HOP-92 NSCLC is 1.09 µM; with HT29 colon, 0.0364 µM; in the test with K-562 leukemia, 0.0443 µM; with MALME-3M melanoma, 0.118 µM; in the test on MCF7 breast, 0.0115 µM; in the test with NCI-H23 lung, 0.0401 µM. The figures for the GI50 in the test with OVCAR-3 ovarian and with OVCAR-8 ovarian were 0.0824 µM and 0.0468 µM, respectively. Also, the TGI came out at 2.82 µM in the test with HOP-92 NSCLC; 1.01 µM in the test with HT29 colon; 0.485 µM with K-562 leukemia; 0.356 µM in the test with MALME-3M melanoma; 1.07 µM with MCF7 breast; 0.285 µM in the test with NCI-H23 lung. The TGI in the test on OVCAR-3 ovarian turned out to be 0.247 µM; in the test with OVCAR-8 ovarian it was 0.541 µM.

On to `c1ccc2c3c(ccc2c1)-c1c(ccc2c(NCCCCN4CCCCC4)cccc12)C3`, for which the GI50 was 1.63 µM in the test on HCT-116 colon; 2.46 µM with HOP-92 NSCLC; 1.67 µM in the test with K-562 leukemia; 10.8 µM in the test with MCF7 breast; 1.7 µM with NCI-H23 lung; 1.21 µM in the test with OVCAR-3 ovarian. For the same compound, in the test on OVCAR-8 ovarian, the GI50 is 2.19 µM. Further, the TGI stood at 2.98 µM in the test on HCT-116 colon; 7.73 µM in the test with HOP-92 NSCLC; 5.85 µM with K-562 leukemia; 30.3 µM in the test on MCF7 breast; 3.16 µM with NCI-H23 lung; 2.52 µM in the test on OVCAR-3 ovarian. Also, in the test with OVCAR-8 ovarian, the TGI was 5.61 µM.

With `CC1=CC(=O)c2ccc(C)cc2C1=O`, the TGI was 34.4 µM in the test with A498 renal; 15.1 µM in the test with HCT-116 colon; 4.2 µM in the test on HOP-92 NSCLC; greater than 100 µM in the test with HT29 colon; greater than 100 µM in the test with K-562 leukemia; 11.3 µM in the test with MCF7 breast. Also, the TGI in the test with NCI-H23 lung was determined as 23.9 µM; in the test with OVCAR-3 ovarian, 29.1 µM; in the test on OVCAR-8 ovarian, 26.8 µM.

In the case of `CCOC(=O)N1C=CC(=C2C(=C3C=CN(C(=O)OCC)C=C3)C(=C3C=CN(C(=O)OCC)C=C3)C2=C2C=CN(C(=O)OCC)C=C2)C=C1`, the TGI in the test with HCT-116 colon was 56.1 µM; in the test on HOP-92 NSCLC, 33.9 µM; in the test on HT29 colon, greater than 100 µM; in the test on K-562 leukemia, 71.4 µM; in the test on MALME-3M melanoma, 64 µM; in the test on MCF7 breast, greater than 100 µM. Moreover, the TGI in the test with NCI-H23 lung is greater than 100 µM; in the test on OVCAR-3 ovarian, 81.1 µM; in the test with OVCAR-8 ovarian, 71.5 µM.

`Cc1ccc(NC(=O)c2cc3ccccc3cc2O)c(C)c1.Cc1ccc(NC(=O)c2cc3ccccc3cc2[O-])c(C)c1.[Ni+2]`: the GI50 with A498 renal was 3.44 µM; with HCT-116 colon it was 2.79 µM; with HT29 colon it was 3.14 µM; with K-562 leukemia, 3.7 µM; in the test with MALME-3M melanoma, 3.4 µM; in the test with MCF7 breast, 3.45 µM. Further, the GI50 with NCI-H23 lung is 2.48 µM; with OVCAR-3 ovarian, 4.23 µM. In addition, the TGI with A498 renal was 13.4 µM; with HCT-116 colon, 11.4 µM; in the test with HT29 colon, 10.9 µM; in the test with K-562 leukemia it was 12.9 µM; in the test with MALME-3M melanoma it was 14.3 µM; in the test with NCI-H23 lung, 10.1 µM. Moreover, the TGI in the test on OVCAR-3 ovarian is 20.6 µM.

In the case of `CC(=O)[O][Bi]([c]1ccccc1)[c]1ccccc1`, the GI50 was 18.2 µM in the test with A498 renal; 4.29 µM in the test with HCT-116 colon; 1.33 µM with HOP-92 NSCLC; 18.1 µM in the test on HT29 colon; 2.75 µM with K-562 leukemia; 2.62 µM in the test with MCF7 breast. The values for the GI50 with NCI-H23 lung, in the test on OVCAR-3 ovarian and with OVCAR-8 ovarian were 11.5 µM, 11.8 µM and 16.4 µM, respectively. In addition, the TGI was determined as 32.4 µM in the test with A498 renal; 13.7 µM with HCT-116 colon; 4.28 µM with HOP-92 NSCLC; 32.3 µM in the test with HT29 colon; 14.5 µM with K-562 leukemia; 7.97 µM in the test with MCF7 breast. For the same compound, the TGI with NCI-H23 lung was 27.8 µM; with OVCAR-3 ovarian it was 34.3 µM; with OVCAR-8 ovarian, 31 µM.

For `C/C=C/C1=CN2C(=O)c3cc(OC4OC(C)C(NC)C(C)(O)C4O)c(C)c(O)c3N=C[C@@H]2C1` (stereo not given in full), the GI50 was 0.0282 µM and < 0.01 µM in the test with A498 renal; 0.0431 µM and < 0.01 µM in the test with K-562 leukemia; 0.0784 µM and < 0.01 µM in the test with NCI-H23 lung; 0.203 µM in the test on OVCAR-3 ovarian. Moreover, the TGI is 0.0887 µM and < 0.01 µM in the test on A498 renal; 11.9 µM in the test on HCT-116 colon; 10.2 µM in the test with HT29 colon; greater than 100 µM in the test on K-562 leukemia; 13.4 µM in the test on MCF7 breast; greater than 100 µM with OVCAR-8 ovarian.

As to `Cc1ccccc1NC(=O)c1ccc([N+](=O)[O-])cc1`, the TGI in the test on A498 renal, with HCT-116 colon, in the test on HOP-92 NSCLC, with HT29 colon, in the test on K-562 leukemia and with MALME-3M melanoma was greater than 100 µM each time. The TGI in the test with NCI-H23 lung, with OVCAR-3 ovarian and with OVCAR-8 ovarian was greater than 100 µM each time.

As to `c1ccc2c(c1)[nH]c1c2ncc2[nH]c3ccccc3c21`, the TGI in the test on A498 renal came out at 9.07 µM; with HCT-116 colon, 3.35 µM; in the test on HOP-92 NSCLC it was 8.71 µM; in the test on HT29 colon, 11.1 µM; in the test with K-562 leukemia, 8.3 µM; in the test on MALME-3M melanoma it was 47.1 µM. Besides, the results for the TGI with NCI-H23 lung, with OVCAR-3 ovarian and in the test with OVCAR-8 ovarian were 33.5 µM, 6.96 µM and 17.2 µM, respectively.

Consider `O=C(NCCCCCCNC(=O)OCc1ccc2c(Cl)cc(Cl)c(O)c2n1)OCc1ccc2c(Cl)cc(Cl)c(O)c2n1`, for which the GI50 in the test with A498 renal was 1.25 µM; in the test on HCT-116 colon it was 0.209 µM; with HOP-92 NSCLC it was 0.515 µM; in the test on HT29 colon, 0.565 µM; in the test with K-562 leukemia, 0.381 µM; in the test on MALME-3M melanoma, 1.42 µM. In addition, the GI50 was 1.42 µM in the test on NCI-H23 lung, 0.327 µM in the test with OVCAR-3 ovarian and 0.677 µM in the test on OVCAR-8 ovarian. Also, the TGI in the test on A498 renal worked out at 2.55 µM; in the test with HCT-116 colon it was 0.693 µM; with HOP-92 NSCLC it was 2.17 µM; in the test on HT29 colon, 2.23 µM; in the test with MALME-3M melanoma, 2.77 µM; with NCI-H23 lung, 3.06 µM. The TGI came to 1.24 µM in the test on OVCAR-3 ovarian and 2.62 µM in the test on OVCAR-8 ovarian.

As to `Cc1c(CC/C(=N\Nc2ccc([N+](=O)[O-])cc2[N+](=O)[O-])c2ccccc2)c2ccccc2n1C`, the TGI in the test with A498 renal is greater than 100 µM; with HCT-116 colon it was greater than 100 µM; in the test with HOP-92 NSCLC, greater than 100 µM; in the test on HT29 colon, greater than 100 µM; with K-562 leukemia, greater than 31.6 µM; with MALME-3M melanoma, greater than 100 µM. In addition, the TGI in the test with NCI-H23 lung, with OVCAR-3 ovarian and with OVCAR-8 ovarian was greater than 100 µM in each case.

`Nc1ncnc2c1ncn2C1OC(COC2C(CO)OC(OC(C(=O)O)C(O)C(OP(=O)(O)O)C(O)C(=O)O)C(O)C2O)C(O)C1O` (stereo not given): the TGI in the test on A498 renal, in the test with HCT-116 colon, with HT29 colon, in the test on K-562 leukemia, in the test with MALME-3M melanoma and in the test on MCF7 breast was greater than 100 µM in each case. The TGI in the test with NCI-H23 lung, in the test with OVCAR-3 ovarian and with OVCAR-8 ovarian was greater than 100 µM in each case.

Regarding `C/C(=C\c1ccn(-c2ccc(N)cc2F)n1)[C@@H]1C[C@@H]2O[C@]2(C)CCC[C@H](C)[C@H](O)[C@@H](C)C(=O)C(C)(C)[C@@H](O)CC(=O)O1`, the GI50 in the test on HCT-116 colon was 0.0169 µM; in the test with HOP-92 NSCLC, 6.51 µM; in the test on HT29 colon, 0.0173 µM; in the test on K-562 leukemia it was 0.0197 µM; in the test with MCF7 breast, less than 0.0119 µM; in the test on NCI-H23 lung, 0.033 µM. Further, the GI50 is 0.0166 µM with OVCAR-3 ovarian and 0.0408 µM with OVCAR-8 ovarian. In addition, the TGI with HCT-116 colon was greater than 50 µM; in the test on HOP-92 NSCLC it was greater than 50 µM; in the test with HT29 colon, greater than 29 µM; in the test with K-562 leukemia it was greater than 50 µM; in the test on MCF7 breast it was greater than 50 µM; in the test with NCI-H23 lung, greater than 50 µM. The TGI is 0.159 µM in the test on OVCAR-3 ovarian and greater than 50 µM in the test on OVCAR-8 ovarian.

Regarding `c1ccc2c(CNCCCCCCCCCCCCNCc3cccc4ccccc34)cccc2c1`, the TGI in the test with A498 renal is 19.7 µM; in the test on HCT-116 colon, 2.95 µM; with HOP-92 NSCLC, 3.66 µM; in the test with HT29 colon, 3.03 µM; in the test with K-562 leukemia, 2.11 µM; in the test on MALME-3M melanoma it was 3.66 µM. Also, the results for the TGI in the test on NCI-H23 lung, in the test with OVCAR-3 ovarian and in the test on OVCAR-8 ovarian were 2.89 µM, 3.84 µM and 3.13 µM, respectively.

On to `Nc1nc(=Nc2ccccc2)ss1`, for which the TGI in the test with A498 renal, in the test on HCT-116 colon, with HOP-92 NSCLC, in the test with HT29 colon, in the test with K-562 leukemia and in the test on MALME-3M melanoma was greater than 100 µM each time. The TGI in the test on NCI-H23 lung, in the test with OVCAR-3 ovarian and in the test on OVCAR-8 ovarian was greater than 100 µM each time.

Turning to `COC(=O)C1=C(C)N(NC(N)=O)C(C)(O)C12CCOC2=O` (stereo not given), the TGI in the test with A498 renal, with HCT-116 colon, in the test with HOP-92 NSCLC, in the test with HT29 colon, in the test on K-562 leukemia and in the test on MALME-3M melanoma was greater than 100 µM in each case. Further, the TGI in the test with NCI-H23 lung, in the test with OVCAR-3 ovarian and in the test on OVCAR-8 ovarian was greater than 100 µM in each case.
